Measured values as given in US7652000B2, “Boron-containing compounds and methods of use” (Anacor Pharmaceuticals, Inc., priority 2004, dated 2010).
In brackets after ≈: the same amount, converted by molar mass.

Assays:
IL-6 = assay: Inhibition of IL-6 secretion from human PBMC stimulated with LPS; format: cell-based; details: 1 μg/ml LPS, 24 h; for IC50: read-out: IC50 IL-6 release
Method: (§1) 5.2 Inhibition of IL-β, IL-6, or TNF-α Secretion from Human Peripheral Blood […] (PBMC) Stimulated with LPS PBMC (5×10^5 cells) suspended in RPMI 1640 culture medium supplemented with 1% penicillin and 1% streptomycin are pre-incubated for 30 min. at 37° C. with the test compound, reference compound, or culture medium (control). Thereafter, 1 μg/ml LPS is added to induce the cytokine secretion and the mixture is incubated for 24 h at 37° C. For basal control measurements, LPS is omitted from the incubation medium. Following incubation, the samples are centrifuged at 250×g for 5 min. at 4° C. and the supernatants are collected. The amount of secreted IL-1β, 1L-6, or TNF-α present in the supernatant is quantified using an EIA detection kit (R&D systems). The photometric measurements are made with a microplate reader (Ultra, Tecan). The results are expressed as a percent inhibition of the control secretion induced by LPS. The standard inhibitory reference compounds for IL-1β, IL-6 or TNF-α are cycloheximide and dexamethasone, respectively, which are tested in each experiment at several concentrations to obtain an inhibition curve from which their IC50 values are calculated (Schindler, R., et al., (1990). “Correlations and interactions in the production of interleukin-6 (IL-6), IL-1, and tumor necrosis factor (TNF) in human blood mononuclear cells: IL-6 suppresses IL-1 and TNF”, Blood, 75:40. These procedures were used to determine the inhibition (and selectivity) of cytokine release by representative compounds […] shown in Table 2. Thus, the invention provides antibiotics that are generically called borinic acid complexes, most preferably derived from disubstituted borinic acids.

S. aureus ATCC 29213 = assay: MIC determination (NCCLS broth microdilution), S. aureus; format: cell-based; details: lowest concentration with >=80% inhibition, 24 h at 34° C.
Method: (§2) The compounds of this invention are evaluated for their antibacterial activity as per the guidelines and procedures prescribed by the National Committee for Clinical Laboratory Standards (NCCLS) (cf., NCCLS Document M7-A3, 1993-Antimicrobial Susceptibility Testing). 5.1.1 Protocol for Determining Minimum Inhibitory Concentration (MIC) A useful protocol for MIC determination is as follows: • 1. Approximately 2.5 mg of the compounds to be tested was weighed into cryovials. • 2. 5 mg/ml stock solutions were made by adding DMSO to the samples accordingly. • 3. 256 μg/ml working solutions were made by using the 5 mg/ml stock solutions and adding sterile distilled water accordingly. • 4. A Beckman 2000 Automated Workstation was programmed to load 96-well plates with broth and compounds as follows: • 100 μl of the appropriate broth was added to columns 1-11. • 200 μl of the appropriate broth was added to column 12. • 100 μl of compounds at the 256 μg/ml working solution were added to column 1 (one compound per row). • Two-fold serial dilutions were done from columns 1-10. • Column 11 served as the growth control. • 5. The ten-organism panel was plated from stock vials stored at −80° C. and incubated for 24 hours at 34° C. The organisms were then sub-cultured and incubated for 24 hours at 34° C. • The inoculums were first prepared in sterile distilled water with a target of 0.09-0.11 absorbance at 620 nm wavelength. • A 1/100 dilution was made into the appropriate broth. • 100 μl of broth with organism was added to columns 1-11. • Column 12 served as the blank control. • 6. The completed 96 well plates were incubated for 24 hours at 34° C. The 96-well plates were then read using a Beckman Automated Plate Reader at 650 nm wavelength. The MIC was determined through calculations involving the growth control (column 11) and blank control (column 12). 5.1.2 MIC Calculation The absorbance readings from the Biomek Automated Plate Reader are used to determine the percent inhibition for each test well. The formula used is as follows: [formula] • ABSTest: Absorbance of the test well. • ABSblank: Absorbance of the blank well in the same row as the test well (column 12). • ABSgrowth: Mean absorbance of the growth control wells (column 11). […] These procedures were used to obtain the representative microbiological data for the compounds 10 to 19 shown in Table 1 as MIC (Minimum Inhibitory Concentration) with the values expressed as micrograms per milliliter (mcg/ml).

TNF-α = assay: Inhibition of TNF-α secretion from human PBMC stimulated with LPS; format: cell-based; details: 1 μg/ml LPS, 24 h; for IC50: read-out: IC50 TNF-α release
Method: as §1

IL-8 = assay: Inhibition of IL-8 pro-inflammatory cytokine release; format: cell-based
Source text: The selective inhibition of the release of pro-inflammatory cytokines is shown in Table 2 with representative compounds 10, 11, and 30-35.

P. acnes ATCC 6919 = assay: MIC determination (NCCLS broth microdilution), P. acnes; format: cell-based, Propionibacterium acnes; details: lowest concentration with >=80% inhibition, 24 h at 34° C.
Method: as §2

IL-1β = assay: Inhibition of IL-1β secretion from human PBMC stimulated with LPS; format: cell-based; details: 1 μg/ml LPS, 24 h; for IC50: read-out: IC50 IL-1β release
Method: as §1

[1] = system: S. epidermidis ATCC 12228; assay: MIC determination (NCCLS broth microdilution), S. epidermidis; format: cell-based; details: lowest concentration with >=80% inhibition, 24 h at 34° C.
Method: as §2

| Structure (SMILES) | MIC S. aureus ATCC 29213 (S. aureus ATCC 29213) [µg/mL] | MIC P. acnes ATCC 6919 (P. acnes ATCC 6919) [µg/mL] | MIC S. epidermidis ATCC 12228 [1] [µg/mL] | Inhibition (%) at 25 μM TNF-α release (TNF-α) | Inhibition (%) at 25 μM IL-1β release (IL-1β) | also measured |
| --- | --- | --- | --- | --- | --- | --- |
| Cc1ccc(B(CCc2ccccc2)OC(=O)c2ncccc2O)cc1Cl [Compound 12, (3-chloro-4-methylphenyl)(phenethyl)borinic acid 3-Hydroxypicolinate ester] | 0.5 (≈ 1.32 µM) | 3 (≈ 7.9 µM) | 1 (≈ 2.63 µM) |  |  |  |
| Cc1ccc(B(OC(=O)c2ncccc2C(=O)O)c2ccc(C)cc2Cl)c(Cl)c1 [Compound 14, Bis(2-Chloro-4-methylphenyl)borinic acid 3-carboxypicolinate ester] | 0.125 (≈ 0.292 µM) | 3 (≈ 7.01 µM) | 4 (≈ 9.34 µM) |  |  |  |
| CCOC(=O)c1cccnc1C(=O)OB(c1ccc(C)c(Cl)c1)c1ccc(C)c(Cl)c1 [Compound 30, Bis(3-chloro-4-methylphenyl)borinic Acid 3-(Ethyloxycarbonyl)picolinate Ester] |  |  |  | 101% | 76% |  |
| Cc1ccc(B(OC(=O)c2ccc(C(=O)O)cn2)c2ccc(C)c(Cl)c2)cc1Cl [Compound 31, Bis(3-chloro-4-methylphenyl)borinic acid 5-Carboxypicolinate ester] |  |  |  | 101% | 80% |  |
| Cc1ccc(B(OC(=O)c2ncccc2OCCN2CCOCC2)c2ccc(C)c(Cl)c2)cc1Cl [Compound 32, Bis(3-chloro-4-methylphenyl)borinic acid 3-[(2-Morpholinoethyl)oxy]picolinate ester] |  |  |  | 101% | 34% |  |
| Cc1ccc(B(OC(=O)c2ncccc2O)c2ccc(O)cc2)cc1Cl [Compound 33, (3-chloro-4-methylphenyl)(4-hydroxyphenyl)borinic acid 3-hydroxypicolinate ester] |  |  |  | 48% | 60% |  |
| O=C(OB(c1ccc(Cl)cc1F)c1c(Cl)ccc(Br)c1F)c1ncccc1O [Compound 34, (3-Bromo-6-chloro-2-fluorophenyl)(4-chloro-2-fluorophenyl)borinic acid 3-hydroxypicolinate ester] |  |  |  | 101% | 100% | Inhibition (%) at 25 μM IL-6 release (IL-6): 108% |
| CC[C@H]1OC(=O)[C@H](C)[C@@H](O[C@H]2C[C@@](C)(OC)[C@@H](O)[C@H](C)O2)[C@H](C)[C@@H](O[C@@H]2O[C@H](C)C[C@H](N(C)C)[C@H]2O)[C@](C)(O)C[C@@H](C)C(=O)[C@H](C)[C@@H](O)[C@]1(C)O [erythromycin, reference compound] |  |  |  |  |  | MIC (S. aureus ATCC 29213; Staphylococcus aureus, ATCC29213): 0.5 µg/mL (≈ 0.681 µM); MIC (P. acnes ATCC 6919; Cutibacterium acnes, ATCC6919): 1 to 2 µg/mL (≈ 1.36 to 2.73 µM); MIC ([1]; Staphylococcus epidermidis, ATCC12228): 0.5 µg/mL (≈ 0.681 µM) |

Second part, led by results:

| MIC S. aureus ATCC 29213 (S. aureus ATCC 29213) [µg/mL] | MIC P. acnes ATCC 6919 (P. acnes ATCC 6919) [µg/mL] | MIC S. epidermidis ATCC 12228 [1] [µg/mL] | Structure (SMILES) | Inhibition (%) at 25 μM TNF-α release (TNF-α) | Inhibition (%) at 25 μM IL-1β release (IL-1β) | also measured |
| --- | --- | --- | --- | --- | --- | --- |
| 2 (≈ 5 µM) | 0.3 (≈ 0.75 µM) | 1 (≈ 2.5 µM) | Cc1ccc(B(OC(=O)c2ncccc2O)c2ccc(C)c(Cl)c2)cc1Cl [Compound 10, Bis(3-chloro-4-methylphenyl)borinic acid 3-hydroxypicolinate ester] | (100%) | (99%) | IC50 (IL-6): 3.6 µM; Inhibition (%) at 25 μM IL-6 release (IL-6): (80%); IC50 (TNF-α): 8.6 µM; Inhibition (%) at 25 μM IL-8 release (IL-8): (122%); IC50 (IL-1β): 10.8 µM |
| 1 (≈ 2.5 µM) | 0.3 (≈ 0.75 µM) | 0.25 (≈ 0.625 µM) | Cc1cc(Cl)ccc1B(OC(=O)c1ncccc1O)c1ccc(Cl)cc1C [Compound 11, Bis(2-methyl-4-chlorophenyl)borinic acid 3-Hydroxypicolinate ester] | (101%) | (103%) | IC50 (IL-6): 2.8 µM; Inhibition (%) at 25 μM IL-6 release (IL-6): (102%); IC50 (TNF-α): 14.9 µM; Inhibition (%) at 25 μM IL-8 release (IL-8): (122%); IC50 (IL-1β): 15 µM |
| 2 (≈ 4.11 µM) | 3 (≈ 6.16 µM) | 1 (≈ 2.05 µM) | O=C(OB(c1ccc(Cl)cc1F)c1c(Cl)ccc(Br)c1F)c1ncccc1O [Compound 13, (3-Bromo-6-chloro-2-fluorophenyl)(2-fluoro-4-chlorophenyl)borinic acid 3-Hydroxypicolinate ester] |  |  |  |
| 4 (≈ 9.95 µM) | 3 (≈ 7.46 µM) | 4 (≈ 9.95 µM) | COc1ccc(Cl)cc1B(OC(=O)c1ncccc1O)c1cccc(Cl)c1 [Compound 15, (2-Methoxy-5-chlorophenyl)(3-chlorophenyl)borinic acid 3-Hydroxypicolinate ester] |  |  |  |
| 0.5 (≈ 1.17 µM) | 10 (≈ 23.3 µM) | 8 (≈ 18.6 µM) | CC(=O)Nc1ccc(O)c(C(=O)OB(c2cccc(Cl)c2)c2cccc(Cl)c2)n1 [Compound 16, Bis(3-chlorophenyl)borinic acid 6-Acetylamino-3-hydroxypicolinate ester] |  |  |  |
